Data as given in patent US6420121B1, “Prevention of cell migration initiation with CMV US28 receptor antagonists” (Oregon Health Sciences University, priority 1998, dated 2002).
Entries after “also recorded” stand apart in the source; their conditions may differ.

Assays:
HCMV infected SMCs = assay: HCMV-induced SMC migration assay (migration chamber); assay type: cell-based; conditions: for inhibition of HCMV-induced SMC migration: SMCs infected with HCMV, FIG. 7 and FIG. 9
Description: The present invention provides an assay for determining therapeutic activity of US28 receptor antagonists, comprising (a) obtaining and isolating smooth muscle cells into a first chamber of a migration device, wherein the first migration chamber comprises growth media chambers and is defined by a first side of a membrane and chamber walls, and wherein the migration device comprises a second chamber defined by the second side of the membrane and having an enclosed space; (b) infecting the smooth muscle cells with human cytomegalovirus (HCVM) containing a gene encoding the US28 receptor; (c) adding a candidate therapeutic agent to the first chamber; and (d) determining the amount of cellular migration into the second chamber, whereby inhibition of cellular migration of infected smooth muscle cells indicates therapeutic activity. Preferably, the smooth muscle cells are isolated from pulmonary arteries. Preferably, the membrane has a pore size of from about 2 to about 10 microns. Most preferably, the membrane pore size is about 3 microns. Preferably the amount of cellular migration is determined by an assay for counting the number of smooth muscle cells in the second chamber wherein the assay for counting the number of smooth muscle cells is selected from the group consisting of microscopic cell counting per unit area, radiolabeling the smooth muscle cells and counting radioactivity in the second chamber, attaching a fluorescent probe to the smooth muscle cells and measuring fluorescence within the second chamber, and combinations thereof.
SMCs are cultured in the upper chamber and infected with HCMV (preferably at or near MOI11). Only cells that are infected will migrate through a filter (preferably 3 micron) to the lower chamber. The cells in the lower chamber are counted by microscopy or labeled with a radioactive or fluorescent label.
The present invention provides an assay for determining therapeutic activity of US28 receptor antagonists, comprising (a) obtaining and isolating smooth muscle cells into a first chamber of a migration device, wherein the first migration chamber comprises growth media chambers and is defined by a first side of a membrane and chamber walls, and wherein the migration device comprises a second chamber defined by the second side of the membrane and having an enclosed space; (b) infecting the smooth muscle cells with human cytomegalovirus (HCVM) containing a gene encoding the US28 receptor; (c) adding a candidate therapeutic agent to the first chamber; and (d) determining the amount of cellular migration into the second chamber, whereby inhibition of cellular migration of infected smooth muscle cells indicates therapeutic activity. Preferably, the smooth muscle cells are isolated from pulmonary arteries. […]

[1] = test system: US28 transfected smooth muscle cell; assay: US28 SMC migration with PTK pathway inhibitors (FIG. 15); assay type: cell-based

| Molecule | inhibition of HCMV-induced SMC migration (HCMV infected SMCs) | inhibition of US28 SMC migration [1] | other results |
| --- | --- | --- | --- |
| C[C@@H]1C[C@@H]([C@H](O)CC2CC(=O)NC(=O)C2)C(=O)[C@@H](C)C1 [cyclohexamide] | blocked |  |  |
| O=C(O)P(=O)(O)O [foscarnet] | did not inhibit SMC migration; also recorded: did not inhibit migration of infected smooth muscle cells |  |  |
| CO[C@H]1[C@@H](OC)C[C@H](C)[C@@H](OC)C2=CC(=O)C=C(NC(=O)/C(C)=C/C=C\[C@H](OC)[C@@H](OC(N)=O)/C(C)=C/[C@@H]1C)C2=O [herbimycin A, Herbimycin A] |  | effective in inhibiting US28 transfected smooth muscle cell migration |  |
| PDGF |  |  | induction of cell migration in SMCs (HCMV infected SMCs; SMCs treated with PDGF, compared with HCMV infection, FIG. 7): did not cause cell migration in SMCs to nearly the extent as HCMV infection |
| Pertussis toxin |  | had no effect |  |
| RANTES: C-C chemokine, US28 receptor ligand (protein, UniProt P13501 24-91, looked up) C-C motif chemokine 5: SPYSSDTTPCCFAYIARPLPRAHIKEYFYTSGKCSNPAVVFVTRKNRQVCANPEKKWVREYINSLEMS |  |  | SMC migration on addition of chemokine (HCMV infected SMCs; HCMV-GFP-infected SMCs, FIG. 12): increased SMC migration in a dose-dependent manner |
